The record followed here is article PMC9599717, “The Multicellular Effects of VDAC1 N-Terminal-Derived Peptide” (Biomolecules, 2022).

For assay [1], the target named is VDAC1. Briefly: Microscale thermophoresis (MST) binding to fluorescently labeled purified VDAC1. As to conditions: fluorescently labeled purified VDAC1 (138 nM); actin 10–500 nM, tubulin 20–2000 nM; 10 mM Tricine pH 7.4, 100 mM NaCl; read-out: Kd of interaction with VDAC1 (MST). On the procedure:
Purified VDAC1 was fluorescently labeled using the NanoTemper Protein-Labeling Blue Kit. Fluorescently labeled VDAC1 was incubated with different concentrations of actin, tubulin, or peptides in 10 mM Tricine buffer (pH 7.4) containing 100 mM NaCl. After a 20-min incubation, 8–10 μL aliquots were loaded into microscale thermophoresis (MST) grade glass capillaries (NanoTemper Technologies, Munich, Germany), and thermophoresis was measured with the NanoTemper Monolith-NT115 system (20/40% light-emitting diode, 40% infrared laser power).
Figure 5 D-Δ(1-18)N-Ter-Antp altered actin filament organization (A,B) U-87MG cells were cultured and incubated for 24 h with D-Δ(1-18)N-Ter-Antp (10 µM). Cells were stained for actin using Phalloidin-488 and visualized by confocal microscopy (A) and quantified for Phalloidin-488 staining intensity (B). The results were from triplicates of different biological repeats and are presented as the means ± SEM. * p ≤ 0.05; ** p ≤ 0.01. (C) Maximum intensity projection of super-resolution (SIM) microscopy image. […] (D) Actin interaction with VDAC1 analyzed using the MST method. […] (E) In vitro G-actin polymerization was monitored, as described in the Method section. […]
Figure 6 D-Δ(1-18)N-Ter-Antp altered tubulin filament organization. […] Quantification of tubulin staining intensity (B). […] (D) Tubulin (20–2000 nM) interaction with VDAC1 analyzed using the MST method.

Assay [2] relates to MEC-1 (human B-cell chronic lymphocytic leukemia). Briefly: Cell death by PI staining and flow cytometry (FACS), MEC-1. The format is cell-based. The note with it: MEC-1 cells, 1.5 h. On the procedure:
MEC-1 cells were incubated in a serum-free medium with various concentrations of VDAC1-based peptides for 1.5 h at room temperature (RT), collected by centrifugation, washed with phosphate-buffered saline (PBS), and analyzed for cell death. Adherent cancer cells were seeded in culture plates and allowed to adhere overnight in a sterile cell culture incubation chamber maintained at 37 °C and 5% CO2. The next day, media was removed from the plates, and cells were treated with various concentrations of VDAC1-based peptides for the indicated time in serum-free Dulbecco’s Modified Eagle Medium (DMEM) with and without DMSO (final 0.15%) as a control for 6 h at 37 °C and 5% CO2. Cells were trypsinized, centrifuged (1500× g, 5 min), and washed with PBS.
Cell death was analyzed by the propidium iodide (PI) staining, followed by flow cytometry with the iCyt sy3200 Benchtop Cell Sorter/Analyzer and analysis with EC800 v 1.3.7 software (Sony Biotechnology Inc., San Jose, CA, USA). Apoptosis was analyzed by PI and annexin V-FITC staining, which was carried out according to the manufacturer’s instructions with minor modifications. […] Next, cells were washed and PI (6.25 μg/mL), was added immediately before flow cytometry At least 10,000 events were collected, recorded on a dot plot, and analyzed by flow cytometry. […]
For orientation: In flow cytometry, cells or beads pass a laser one at a time.

As for actin, the equilibrium dissociation constant (Kd) in assay [1] stood at 30 nM. On to “11-GKSARDVFTKGYGFGL-26- RRMKWKK [Δ(1-10)N-Ter-min-Antp, VDAC1 N-terminal residues 11-26 fused to minimal Antp]”, for which the “Maximal cell death (at the concentration for maximal cell death)” value in assay [2] amounted to 20%.

For orientation: Kd means the constant that tells how readily two partners part at equilibrium.
